The values that follow come from paper PMC7566913, “Dual Gene Delivery Reagents From Antiproliferative Alkylphospholipids for Combined Antitumor Therapy” (Frontiers in Chemistry, 2020).

A short description of data set [1]: Particle size and zeta potential of lipoplexes by DLS. The data set is classed as physicochemical. As to conditions: lipoplexes with pCMV-Gluc, 25 °C, 5 % glucose, N/P 3, 1 molar equivalent of DOPE. From the text: The capacity of the pro-APLs to interact electrostatically with nucleic acids and form lipoplexes was checked by standard agarose gel electrophoresis. […] The size (hydrodynamic diameter) and charge (zeta potential, ζ) of the lipoplexes prepared at an N/P ratio of 3 with one molar equivalent of dioleoyl-sn-glycero-3-phosphatidylethanolamine (DOPE), a lipid with fusogenic properties (Hui et al., [1996]; Zuhorn et al., [2005]), were investigated by DLS (Supplementary Table 1).
as measured by DLS. Lipoplexes were prepared at 25 °C, in 5 % glucose, at a N/P ratio of 3 and with
1 molar equivalent of DOPE.
(Gaillard et al., 2019). Data are the mean of three independent measurements (± SD).

Another data set concerns 16HBE cells. Nature of the data set: Cytotoxicity, MTT assay, 16HBE. The class given is cell-based, human. As to conditions: Homo sapiens, 24 h at 37°C. How it is done: The cells were exposed for a 24-h period to increasing concentration of the pro-APLs, ranging from 500 nM to 1 mM, and cell viability was assessed using the MTT colorimetric assay (Mosmann, [1983]). For the three cell lines, viability decreased in a dose-dependent manner in response to APLs and pro-APLs (Supplementary Figures 2–4). Using the best-fit regression curve method, the IC50 value (concentration that provokes 50% inhibition of the cell growth) was calculated for each compound (Table 4). The three cell lines responded to the compounds with varying sensitivities. […] This is attributed to enzyme-mediated hydrolysis of the pro-APL compounds in the complemented culture medium or in the intracellular compartment, competing with pure pH-controlled chemical hydrolysis. According to its structure, a pro-APL may or not be a substrate for specific lipases and, thus, may or not be hydrolyzed into the parent cytotoxic compound. […]
At confluency, cells were released […]
Cells were seeded into 96-well plates (Becton-Dickinson) at the required density (vide supra) in 100 µL of serum containing culture medium. […]
Mitochondrial activity measurements (MTT assay) was used to assess cytotoxicity of the compounds.
Lipid samples were prepared from a lipid film (3.6 µmol of compound evaporated from an ethanolic solution) hydrated with aqueous glucose 5 % and vigorously vortexed for 20 s before serial dilution in aqueous glucose 5 %. For addition of lipid samples to cell culture, part of the culture medium in the culture plates prepared the day before (25 µL) was removed and replaced by lipid samples (25 µL). Negative control was obtained by adding glucose 5 % to the cells instead of lipoplexes.
After a 24-h incubation period at 37 °C, culture supernatant was removed, cells were carefully washed with PBS and MTT (100 µL, 0.5 mg/mL) in complete culture medium was added. After a 1-h incubation period at 37 °C, the MTT sol ution was removed and DMSO (100 µL) was added to lyse cells and dissolve reduced MTT. Intensity of MTT reduction was then evaluated by measuring absorbance at 492 nm. Viability of cells treated with lipids or lipoplexes was expressed as the percentage of the absorbance measured in untreated cells. Value for each sample is the mean of triplicate determinations (± SD). IC50 values were determined within the 95 % confidence interval using nonlinear regression analysis with the GraphPad Prism software (GraphPad Software, San […]
All data are representative of a triplicate determination and are presented as the mean ± SD.
Statistical significance between treatments was assessed by one-way analysis of variance (ANOVA) followed by the Dunnett multiple comparison test, using the Kaleidagraph 4.5 software (Synergy Software, Reading, PA, USA). Data were considered as statistically significant for p value less than

For the compound `CCCCCCCCCCCCCCCCCCOP(=O)(OCOC(=O)CCCCCCCCCCC)OC1CC[N+](C)(C)CC1.[Cl-]` (centres unmarked) [PE12, 4-((((Dodecanoyloxy)methoxy)(octadecyloxy)phosphoryl)oxy)-1,1-dimethylpiperidin-1-ium chloride], the “Particle size of lipoplexes” value in data set [1] is 330 ± 76 nm. The IC50 in the data set on 16HBE cells is 231 ± 70 µM.
